Results taken from PubChem BioAssay (NCI).
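Tested at 5 concentrations; 48 h exposure; 96-well plates; endpoints linearly interpolated, else capped at highest concentration. At the GI50, growth is halved. TGI is the concentration that stops growth completely.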

Key:
Assay in all cases: NCI tumour cell line growth inhibition, 48 h
KM20L2 colon = test system: KM20L2 colon
M19-MEL melanoma = test system: M19-MEL melanoma
P388/ADR leukemia = test system: P388/ADR leukemia
P388 leukemia = test system: P388 leukemia
HCC-2998 colon = test system: HCC-2998 colon
CCRF-CEM leukemia = test system: CCRF-CEM leukemia
SN12K1 renal = test system: SN12K1 renal
MDA-N = test system: MDA-N
MDA-MB-435 = test system: MDA-MB-435
PC-3 prostate = test system: PC-3 prostate
MDA-MB-231 breast = test system: MDA-MB-231 breast
DU-145 prostate = test system: DU-145 prostate
BT-549 breast = test system: BT-549 breast
T-47D breast = test system: T-47D breast
HS 578T breast = test system: HS 578T breast
SR leukemia = test system: SR leukemia
LXFL 529 NSCLC = test system: LXFL 529 NSCLC

Row | SMILES | TGI (KM20L2 colon) | TGI (M19-MEL melanoma) | GI50 (P388/ADR leukemia) | TGI (P388/ADR leukemia) | GI50 (P388 leukemia) | TGI (P388 leukemia) | TGI (HCC-2998 colon) | TGI (CCRF-CEM leukemia) | GI50 (SN12K1 renal) | TGI (SN12K1 renal) | TGI (MDA-N) | TGI (MDA-MB-435) | TGI (PC-3 prostate) | TGI (MDA-MB-231 breast) | TGI (DU-145 prostate) | TGI (BT-549 breast) | TGI (T-47D breast) | TGI (HS 578T breast) | TGI (SR leukemia) | TGI (LXFL 529 NSCLC)
1 | [Cl-].[Rh+3].c1ccc(-c2ccnc3c2ccc2c(-c4ccccc4)ccnc23)cc1.c1ccc(-c2ccnc3c2ccc2c(-c4ccccc4)ccnc23)cc1.c1ccc(-c2ccnc3c2ccc2c(-c4ccccc4)ccnc23)cc1 | > 100 µM | > 86.2 µM | 23.7 µM | > 100 µM | 24.7 µM | > 71 µM | 50 µM | > 100 µM | 29.7 µM | > 87.2 µM |  |  |  |  |  |  |  |  |  | 
2 | CC(C)(C)OC(=O)C1=C(C(=O)OC(C)(C)C)SC2(S1)C(C(=O)OC(C)(C)C)=C(C(=O)OC(C)(C)C)Sc1c2ssc1=O |  |  |  |  |  |  | > 100 µM | > 100 µM |  |  | > 100 µM | > 100 µM | > 100 µM | > 100 µM | > 100 µM | > 100 µM | > 100 µM | > 100 µM |  | 
3 | C/C=C(/C)C(=O)O[C@@H]1c2c(C)coc2C[C@H]2CC[C@H](O)[C@H](C)[C@]21C |  |  |  |  |  |  | > 100 µM | > 100 µM |  |  | > 100 µM | > 100 µM | > 100 µM | > 100 µM | > 100 µM |  | > 100 µM | > 100 µM | > 100 µM | 
4 | C=C(C)C1Cc2c(cc(O)c3c(=O)c4ccccc4n(C)c23)O1 (stereo unspecified) | > 100 µM |  |  |  |  |  | > 100 µM | > 100 µM |  |  |  |  |  |  |  |  |  |  | > 100 µM | > 100 µM
5 | O=[N+]([O-])c1ccc(/C=C/c2ccc(N=Nc3ccc(/C=C/c4ccc([N+](=O)[O-])cc4S(=O)(=O)O)c(S(=O)(=O)O)c3)cc2S(=O)(=O)O)c(S(=O)(=O)O)c1 |  | > 100 µM |  | > 100 µM |  | > 100 µM | > 100 µM | > 100 µM |  | > 100 µM |  |  |  |  |  |  |  |  |  | 
